“Also recorded” adds a separate entry of the source.
How the values were obtained:
SMAD signaling = assay: Immunoblots of SMADs in whole human islets; assay type: cell-based
Description: (§1) The immunoblots are representative of separate experiments in human islets from three different donors. […] Ad.shLacZ indicates a sh-adenovirus for the Ad.shDYRK1A.
Primary antisera employed were: SMAD2/3 (Cell Signaling, 8685p), p-SMAD3 (Abcam, ab52903), SMAD4 (Sc-7966, Santa Cruz), SMAD1/5/9 (ab66737, Abcam), p15INK4 (Abcam, ab53034), p16INK4a (Sc-468, Santa Cruz), p21CIP (556430, BD), p57CIP2 (2557s, Cell Signaling) and GAPDH (Sc-25778, Santa Cruz).
To ascertain whether the harmine-TGFβSF inhibitor combination affected SMAD signaling, human islets were incubated with harmine alone or in combination with two TGFβSF inhibitors: LY or ALK5 (FIG. 5A).

mouse beta cells = assay: Mouse pancreas study: beta cell Ki-67/insulin after 7 days i.p. treatment; assay type: in vivo, C57BL/6N mice; conditions: C57BL6N mice, i.p. daily 7 days, harmine 10 mg/kg, GW788388 30 mg/kg
Method: (§2) On day seven, treatment was begun exactly as in FIG. 9A for seven days.
Male C57BL/6N mice (12 week-old) received vehicle (saline), 10 mg kg^−1 harmine HCl, 30 mg kg^−1 GW788388 or the combination of harmine and GW788388 by intraperitoneal injection daily for 7 days. Mice were sacrificed on day 7, pancreata harvested, fixed in 10% neutral buffered formalin, paraffin embedded, and sectioned. […] A minimum of 2,000 beta cells per pancreas were counted. Investigators were blinded as to group assignments.
(§3) To evaluate the effects of harmine and TGFβ inhibitor in vivo, C57BL6N mice were administered vehicle ([…]), harmine, GW788388, or the combination of harmine plus GW788388 intraperitoneally for seven days, sacrificed, and evaluated for insulin and Ki67. […] Next, human cadaveric islets were transplanted into NOD-SCID mice.

human beta cells [1] = assay: Human islet transplant under renal capsule of NOD-SCID mice: beta cell Ki-67/insulin; assay type: in vivo, human islets in NOD-SCID mice; conditions: i.p. daily 7 days, harmine 10 mg/kg, GW788388 30 mg/kg
Method: as §2
Mice were allowed to recover for 7 days and then treated with vehicle (saline), 10 mg kg-1 harmine HCl, 30 mg kg-1 GW788388 or the combination of harmine and GW788388 by intraperitoneal injection daily for 7 days. Mice were sacrificed on day 7, renal grafts harvested, fixed in 10% neutral buffered formalin, paraffin embedded and sectioned.
as §3

human beta cells [2] = assay: Ki67 immunolabeling in human islets with adenoviral silencing or overexpression plus drug; assay type: cell-based
Method: as §1
Unless otherwise described, all transductions were performed using 150 moi for one hour, and studies performed 72 hours later. […] Adenoviruses encoding human SMAD6 or SMAD7 were prepared as described using cDNAs encoding SMAD6 and SMAD7 obtained from Harvard PlasmID Database.
(§4) Primary antisera were: BrdU (ab6326, Abcam), Ki67 (RM-9106-sl, Thermo Scientific, and MIB1, DAKO), p-Histone-3 (06-570, Millipore), insulin (A0564, DAKO), p-yH2AX (MA1-2022, Thermo Scientific), NKX6.1 (F55A10-c, University of Iowa), PDX1 (07-696, Millipore), MAFA (Ab26405, Abcam), Glucagon (2760s, Cell Signaling), Somatostatin (Sc-20999, Santa Cruz), Pancreatic Polypeptide (A0619, DAKO), and CK19 (Ab52625, Abcam). Species-specific mouse Alexa Fluor 488 (A-11029, Life Technologies), rat Alexa Fluor 594 (A-11007, Life Technologies), rabbit Alexa Fluor 488 (A11037, Life Technologies) or guinea pig Alexa Fluor 488 (A-11073, Life Technologies) secondary antisera were selected as appropriate.

human beta cells [3] = assay: Ki67 labeling of insulin-positive cells in dispersed human cadaveric islets; assay type: cell-based; conditions: for Ki67 labeling with other DYRK1A inhibitors in combination therapy: DYRK1A inhibitor other than harmine, with TGFβSF inhibitor
Description: as §4

TGFβ superfamily members = assay: RNAseq of whole human islets; assay type: cell-based
beta cells of T2D islets = assay: Ki67 immunolabeling in islets from donors with Type 2 diabetes; conditions: harmine alone
Description: Islets from normal and Type 2 diabetes adult cadaveric pancreas donors were obtained from the NIH/NIDDK-supported Integrated Islet Distribution Program and from the Alberta Diabetes Institute. Depending on the experiments performed, islets were used either as intact islets, or were first dispersed with Accutase (Sigma, St. Louis, Mo.) onto coverslips.

[4] = test system: cell cycle activators and cell cycle inhibitors; assay: qPCR of cell cycle activators and inhibitors in whole human islets
Method: Gene expression in dispersed islets was analyzed by real-time PCR performed on an ABI 7500 System.
Reasoning that harmine and harmine-TGFβ inhibitors (and DYRK1A and SMADs, respectively) must ultimately orchestrate cell cycle entry via cell cycle activators and cell cycle inhibitors, gene expression of cell cycle activators and inhibitors was examined in whole islets treated with vehicle, harmine, TGFβ inhibitor or the harmine-TGFβ inhibitor combination (FIGS. 6A-6B).

Q: For Cc1cccc(-c2n[nH]cc2-c2ccc3ncccc3n2)n1 [ALK5 inhibitor, 2-(3-(6-Methylpyridin-2-yl)-1H-pyrazol-4-yl)-1,5 napththyridine], which “p-SMAD3 (SMAD3 phosphorylation), immunoblot” value (“p-SMAD3” below) (SMAD signaling) is on record?
A: further reduced

Q: How did the “mouse beta cell proliferation in vivo (Ki67/insulin)” value (mouse beta cells) turn out when O=C(NC1CCOCC1)c1ccc(-c2cc(-c3c[nH]nc3-c3ccccn3)ccn2)cc1 [GW788388, 4-(4-(3-(pyridin-2-yl)-1H-pyrazol-4-yl)pyridin-2-yl)-N-(tetrahydro-2H-pyran-4-yl)benzamide] was run?
A: induced beta cell proliferation

Q: And the “human beta cell proliferation in vivo in transplanted islets” value (human beta cells [1])?
A: had no effect

Q: And the “proliferation with adenoviral silencing of DYRK1A” value (human beta cells [2]; Ad.shDYRK1A plus TGFβ inhibitor)?
A: markedly accentuates proliferation

Q: With CCN1/C(=C/C(C)=O)Sc2ccc(O)cc21 [INDY] as the molecule, how does the “Ki67 labeling with other DYRK1A inhibitors in combination therapy” value (human beta cells [3]) read?
A: beneficial effects

Q: c1ccc(-c2n[nH]cc2-c2ccnc3ccccc23)nc1 [LY364947, 4-[3-(2-Pyridinyl)-1H-pyrazol-4-yl]-quinoline] was tested. Which “p-SMAD3” value (SMAD signaling) did it give?
A: further reduced

Q: How did the “p-SMAD3” value (SMAD signaling) turn out when COc1ccc2c(c1)[nH]c1c(C)nccc12 [harmine] was run?
A: reductions; also recorded: reduced

Q: What about the “total SMAD1/5/9, immunoblot” value (SMAD signaling) of the same molecule?
A: reductions; also recorded: reduced

Q: And the “mouse beta cell proliferation in vivo (Ki67/insulin)” value (mouse beta cells)?
A: induced beta cell proliferation

Q: And the “human beta cell proliferation in vivo in transplanted islets” value (human beta cells [1])?
A: increased this rate

Q: What about the “BMP1 (RNAseq)” value (TGFβ superfamily members; Donor 1) of the same molecule?
A: 4 FPKM

Q: What about the “BMP5 (RNAseq)” value (TGFβ superfamily members; Donor 1) of the same molecule?
A: 26 FPKM

Q: What about the “GDF11 (RNAseq)” value (TGFβ superfamily members; Donor 1) of the same molecule?
A: 3 FPKM

Q: What about the “INHA (RNAseq)” value (TGFβ superfamily members; Donor 1) of the same molecule?
A: 1 FPKM

Q: What about the “TGFB2 (RNAseq)” value (TGFβ superfamily members; Donor 1) of the same molecule?
A: 3 FPKM

Q: And the “TGFBR1 (RNAseq)” value (TGFβ superfamily members; Donor 1)?
A: 9 FPKM

Q: What about the “TGFBR2 (RNAseq)” value (TGFβ superfamily members; Donor 1) of the same molecule?
A: 3 FPKM

Q: What about the “TGFB1 (RNAseq)” value (TGFβ superfamily members; Donor 1, row r7) of the same molecule?
A: 24 FPKM

Q: And the “TGFB1 (RNAseq), second line so named” value (TGFβ superfamily members; Donor 1, row r11)?
A: 62 FPKM

Q: And the “BMP1 (RNAseq)” value (TGFβ superfamily members; Donor 2)?
A: 3 FPKM

Q: What about the “BMP5 (RNAseq)” value (TGFβ superfamily members; Donor 2) of the same molecule?
A: 20 FPKM

Q: What about the “GDF11 (RNAseq)” value (TGFβ superfamily members; Donor 2) of the same molecule?
A: 3 FPKM

Q: And the “INHA (RNAseq)” value (TGFβ superfamily members; Donor 2)?
A: 1 FPKM

Q: What about the “TGFB2 (RNAseq)” value (TGFβ superfamily members; Donor 2) of the same molecule?
A: 2 FPKM

Q: And the “TGFBR1 (RNAseq)” value (TGFβ superfamily members; Donor 2)?
A: 8 FPKM

Q: And the “TGFBR2 (RNAseq)” value (TGFβ superfamily members; Donor 2)?
A: 3 FPKM

Q: And the “TGFB1 (RNAseq)” value (TGFβ superfamily members; Donor 2, row r7)?
A: 19 FPKM

Q: And the “TGFB1 (RNAseq), second line so named” value (TGFβ superfamily members; Donor 2, row r11)?
A: 22 FPKM

Q: And the “changes in TGFβSF members on harmine treatment of human islets” value (TGFβ superfamily members; RNAseq)?
A: notable changes

Q: What about the “harmine-induced proliferation with overexpression of SMADs 6 and 7” value (human beta cells [2]; adenoviral overexpression, 100 moi) of the same molecule?
A: markedly enhanced

Q: What about the “harmine-induced proliferation with silencing of SMADs 2, 3, and 4” value (human beta cells [2]; adenoviral silencing, 150 moi each) of the same molecule?
A: further enhanced

Q: And the “proliferation with silencing of CDKN1A and/or CDKN1C” value (human beta cells [2]; harmine 10 μM)?
A: robust human beta cell proliferation

Q: And the “Ki67 immunolabeling in T2D islets” value (beta cells of T2D islets)?
A: increased Ki67 immunolabeling to the same degree observed in non-diabetic islet donors

Q: What about the “expression of cell cycle activators (e.g., CDK1, CCNA1, CCNE2, CDC25A)” value ([4]; harmine 10 μM, LY364947 5 μM, qPCR) of the same molecule?
A: induced expression

Q: What about the “cell cycle inhibitor expression other than CDKN1C” value ([4]; harmine alone) of the same molecule?
A: modest and limited effects

Q: What about the “decline of CDKN1C (p57KIP2) expression” value ([4]; harmine alone, qPCR) of the same molecule?
A: ~50%

Q: What does the source list for O=C1NC(Nc2ccccc2)=N/C1=C\c1ccc2c(c1)OCO2 [leucettine-41]?
A: activation of human beta cell proliferation (human beta cells [3]; DYRK1A inhibitor): able to activate human beta cell proliferation; Ki67 labeling with other DYRK1A inhibitors in combination therapy (human beta cells [3]): beneficial effects
